Consider three compounds from ChEMBL document CHEMBL4334516, “Kinase Chemodiversity from the Arctic: The Breitfussins” (J Med Chem, 2019).

Data set [1] concerns MCF7. Nature of the data set: Cytotoxicity in human MCF7 cells assessed as reduction in cell viability by MTS assay. As to conditions: TDE = time-dependent effect. It counts as functional, cell-based. Background: Formazan colour is commonly taken as a measure of viable cells.
Data set [2] has as its target Mitogen-activated protein kinase kinase kinase 9 (Homo sapiens, UniProt P80192). Nature of the data set: Inhibition of MLK1 (unknown origin) assessed as residual enzyme activity at 5 uM by [33P]-ATP filter binding kinase assay relative to control.
In data set [3] the target is Testis-specific serine/threonine-protein kinase 1 (Homo sapiens) (UniProt Q9BXA7). The data set can be described thus: Inhibition of TSSK1 (unknown origin) assessed as residual enzyme activity at 50 uM by [33P]-ATP filter binding kinase assay relative to control.
Data set [4] concerns the target T1, Mitogen-activated protein kinase kinase kinase kinase 2 (Homo sapiens) (UniProt Q12851).
T1 sequence (whole entry): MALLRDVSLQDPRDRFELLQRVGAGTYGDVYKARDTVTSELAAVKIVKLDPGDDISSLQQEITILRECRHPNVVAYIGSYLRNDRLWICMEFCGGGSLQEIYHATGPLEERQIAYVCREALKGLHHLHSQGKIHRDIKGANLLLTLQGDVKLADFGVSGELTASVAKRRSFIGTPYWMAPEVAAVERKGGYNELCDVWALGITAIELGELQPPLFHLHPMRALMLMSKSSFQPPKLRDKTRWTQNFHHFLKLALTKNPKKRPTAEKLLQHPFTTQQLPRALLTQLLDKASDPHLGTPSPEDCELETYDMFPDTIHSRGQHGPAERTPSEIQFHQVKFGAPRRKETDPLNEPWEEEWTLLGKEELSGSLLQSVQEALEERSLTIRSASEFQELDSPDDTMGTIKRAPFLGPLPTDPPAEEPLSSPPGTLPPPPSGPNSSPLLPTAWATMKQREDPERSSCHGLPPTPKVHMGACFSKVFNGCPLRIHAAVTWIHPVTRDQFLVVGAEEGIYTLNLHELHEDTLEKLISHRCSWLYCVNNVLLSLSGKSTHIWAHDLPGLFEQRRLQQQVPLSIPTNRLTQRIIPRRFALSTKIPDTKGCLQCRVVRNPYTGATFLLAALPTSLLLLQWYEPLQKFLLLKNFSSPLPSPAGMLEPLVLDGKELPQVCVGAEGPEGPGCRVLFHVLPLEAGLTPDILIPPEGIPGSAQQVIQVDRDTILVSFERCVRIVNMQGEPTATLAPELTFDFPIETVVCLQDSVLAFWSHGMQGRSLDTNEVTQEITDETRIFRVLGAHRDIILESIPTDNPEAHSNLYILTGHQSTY
Nature of the data set: Inhibition of GCK (unknown origin) assessed as residual enzyme activity at 50 uM by [33P]-ATP filter binding kinase assay relative to control.

Data set [5] addresses T2, Serine/threonine-protein kinase pim-1 (Homo sapiens, UniProt P11309). Nature of the data set: Inhibition of PIM1 (unknown origin) assessed as residual enzyme activity at 50 uM by [33P]-ATP filter binding kinase assay relative to control.
For data set [6], the target named is T2, Serine/threonine-protein kinase pim-1. The data set can be described thus: Inhibition of PIM1 (unknown origin) assessed as residual enzyme activity at 1 uM by [33P]-ATP filter binding kinase assay relative to control.
Data set [7] concerns the target Serine/threonine-protein kinase pim-3 (Homo sapiens, UniProt Q86V86). Nature of the data set: Binding affinity to wild-type human partial length PIM3 (G16 to A317 residues) expressed in bacterial expression system assessed as residual binding level at 10 uM by active-site directed competition binding assay based Kinomescan method relative to control.
Data set [8] has as its target Mitogen-activated protein kinase 15 (Homo sapiens) (UniProt Q8TD08). Nature of the data set: Binding affinity to wild-type human partial length ERK8 (M1 to P437 residues) expressed in bacterial expression system assessed as residual binding level at 10 uM by active-site directed competition binding assay based Kinomescan method relative to control.
In data set [9] the target is T3, Serine/threonine-protein kinase 17B (Homo sapiens, UniProt O94768).
T3 sequence (O94768 whole entry): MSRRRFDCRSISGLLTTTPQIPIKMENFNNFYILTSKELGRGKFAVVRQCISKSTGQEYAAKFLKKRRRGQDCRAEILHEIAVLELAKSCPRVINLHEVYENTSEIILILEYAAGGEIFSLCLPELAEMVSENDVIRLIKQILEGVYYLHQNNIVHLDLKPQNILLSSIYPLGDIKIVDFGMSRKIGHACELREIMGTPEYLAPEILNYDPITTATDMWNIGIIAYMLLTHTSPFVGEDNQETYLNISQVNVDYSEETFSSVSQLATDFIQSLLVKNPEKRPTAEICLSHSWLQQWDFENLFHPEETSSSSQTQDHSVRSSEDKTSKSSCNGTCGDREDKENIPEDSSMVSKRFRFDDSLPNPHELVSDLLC
The data set can be described thus: Binding affinity to wild-type human full length DRAK2 (M1 to C372 residues) expressed in bacterial expression system by active-site directed competition binding assay based Kinomescan method.

The target of data set [10] is Tyrosine-protein kinase JAK1 (Homo sapiens, UniProt P23458). Nature of the data set: Binding affinity to wild-type human partial length JAK1 JH2 domain-pseudokinase expressed in bacterial expression system by active-site directed competition binding assay based Kinomescan method.
Tyrosine-protein kinase JAK1, sequence (P23458 whole entry, the tested form may be a part): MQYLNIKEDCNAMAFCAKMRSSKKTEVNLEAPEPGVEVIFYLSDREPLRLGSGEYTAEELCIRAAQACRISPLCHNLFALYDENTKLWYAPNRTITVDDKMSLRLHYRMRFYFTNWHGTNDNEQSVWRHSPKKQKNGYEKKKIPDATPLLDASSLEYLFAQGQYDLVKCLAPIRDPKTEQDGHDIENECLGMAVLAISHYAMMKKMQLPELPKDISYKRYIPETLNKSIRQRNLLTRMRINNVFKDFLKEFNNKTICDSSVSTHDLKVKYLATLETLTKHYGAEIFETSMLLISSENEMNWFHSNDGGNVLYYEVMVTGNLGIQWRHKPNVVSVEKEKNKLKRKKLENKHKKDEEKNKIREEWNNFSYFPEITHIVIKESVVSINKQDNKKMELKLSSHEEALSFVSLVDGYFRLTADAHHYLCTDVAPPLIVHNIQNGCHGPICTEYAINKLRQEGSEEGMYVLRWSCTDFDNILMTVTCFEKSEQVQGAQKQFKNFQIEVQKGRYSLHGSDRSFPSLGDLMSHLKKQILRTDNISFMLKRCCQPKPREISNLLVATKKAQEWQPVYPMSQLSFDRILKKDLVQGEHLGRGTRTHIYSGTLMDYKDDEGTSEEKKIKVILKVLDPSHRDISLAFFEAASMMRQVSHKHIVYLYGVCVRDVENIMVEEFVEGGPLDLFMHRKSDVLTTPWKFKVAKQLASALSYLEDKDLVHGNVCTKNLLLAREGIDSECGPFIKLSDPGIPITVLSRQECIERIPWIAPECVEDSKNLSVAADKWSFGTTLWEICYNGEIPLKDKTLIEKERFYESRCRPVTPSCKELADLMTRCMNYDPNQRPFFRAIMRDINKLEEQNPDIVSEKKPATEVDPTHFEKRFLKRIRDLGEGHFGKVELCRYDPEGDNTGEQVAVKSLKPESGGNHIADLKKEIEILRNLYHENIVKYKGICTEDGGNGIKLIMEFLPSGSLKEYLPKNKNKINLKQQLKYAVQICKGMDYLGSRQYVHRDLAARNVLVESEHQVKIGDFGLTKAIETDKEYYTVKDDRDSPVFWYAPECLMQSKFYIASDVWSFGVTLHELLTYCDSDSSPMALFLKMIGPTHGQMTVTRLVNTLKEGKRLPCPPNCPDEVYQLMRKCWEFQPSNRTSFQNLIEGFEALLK
Data set [11] concerns the target 1-phosphatidylinositol 3-phosphate 5-kinase (Homo sapiens, UniProt Q9Y2I7). The data set can be described thus: Binding affinity to wild-type human partial length PIKFYVE (F1512 to C2098 residues) expressed in mammalian expression system by active-site directed competition binding assay based Kinomescan method.
Data set [12] addresses Phosphatidylinositol 4-kinase beta (Homo sapiens, UniProt Q9UBF8). The data set can be described thus: Binding affinity to wild-type human full length PIK4CB (M1 to M828 residues) expressed in mammalian expression system by active-site directed competition binding assay based Kinomescan method.
Data set [13] addresses Casein kinase I isoform epsilon (Homo sapiens, UniProt P49674). Nature of the data set: Binding affinity to wild-type human full length CSNK1E (M1 to K416 residues) expressed in bacterial expression system by active-site directed competition binding assay based Kinomescan method.
The subject of data set [14] is MCF7. Nature of the data set: Cytotoxicity in human MCF7 cells assessed as reduction in cell viability incubated for 72 hrs by SRB assay. The conditions noted are these: MCF7, 72 h. (In general: Sulforhodamine B stains cellular protein and so reports cell mass.)
Another data set relates to NCI-H460. The data set can be described thus: Cytotoxicity in human NCI-H460 cells assessed as reduction in cell viability incubated for 72 hrs by SRB assay. As to conditions: NCI-H460, 72 h.
Another data set concerns PBMC. The data set can be described thus: Cytotoxicity in human PBMC assessed as reduction in cell viability incubated for 72 hrs by SRB assay. It counts as cell-based.
Data set [15] is described as follows: Toxicity in zebrafish embryos assessed as induction of scoliosis by measuring unaffected embryos level at 14 uM after 72 hrs (reference value: 100%). Also noted: species or system Danio rerio. The conditions noted are these: in vivo.
A short description of data set [16]: Toxicity in zebrafish embryos assessed as induction of scoliosis by measuring unaffected embryos level at 0.1 uM after 72 hrs (reference value: 100%). As to conditions: in vivo. Also noted: species or system Danio rerio.
A short description of data set [17]: Stability in human liver microsomes supplemented with UDP-glucuronic acid assessed as parent compound remaining level at 5 uM incubated for 1 hr by LC-MS analysis. In kind it is ADME, Microsome. As to conditions: read-out: Stability.
Data set [18] in a line: Unbound fraction in human plasma at 5 uM incubated for 6 hrs at 37 degC by LC-MS analysis based equilibrium dialysis. In kind it is ADME, cell-free. In general terms: Equilibrium dialysis compares concentrations on both sides of a semipermeable membrane.
A short description of data set [19]: Unbound fraction in mouse plasma at 5 uM incubated for 6 hrs at 37 degC by LC-MS analysis based equilibrium dialysis. It counts as ADME, cell-free.
The nature of data set [20]: Kinetic solubility in pH 7.4 aqueous buffer at 500 uM by spectrophotometry. As to conditions: read-out: Kinetic_solubility. In kind it is physicochemical.

≈ marks a conversion by molar mass, not a printed value.

T2 sequence (P11309 whole entry, looked up): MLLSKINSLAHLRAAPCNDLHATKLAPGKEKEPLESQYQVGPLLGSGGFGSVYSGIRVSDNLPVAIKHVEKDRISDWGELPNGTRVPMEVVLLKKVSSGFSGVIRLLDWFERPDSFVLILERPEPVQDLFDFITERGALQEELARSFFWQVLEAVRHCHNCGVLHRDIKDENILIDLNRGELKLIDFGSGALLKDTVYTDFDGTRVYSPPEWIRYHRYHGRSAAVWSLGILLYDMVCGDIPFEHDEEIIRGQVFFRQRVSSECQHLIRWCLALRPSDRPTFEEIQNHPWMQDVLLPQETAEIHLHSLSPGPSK
Phosphatidylinositol 4-kinase beta, sequence (Q9UBF8 whole entry, the tested form may be a part, canonical isoform): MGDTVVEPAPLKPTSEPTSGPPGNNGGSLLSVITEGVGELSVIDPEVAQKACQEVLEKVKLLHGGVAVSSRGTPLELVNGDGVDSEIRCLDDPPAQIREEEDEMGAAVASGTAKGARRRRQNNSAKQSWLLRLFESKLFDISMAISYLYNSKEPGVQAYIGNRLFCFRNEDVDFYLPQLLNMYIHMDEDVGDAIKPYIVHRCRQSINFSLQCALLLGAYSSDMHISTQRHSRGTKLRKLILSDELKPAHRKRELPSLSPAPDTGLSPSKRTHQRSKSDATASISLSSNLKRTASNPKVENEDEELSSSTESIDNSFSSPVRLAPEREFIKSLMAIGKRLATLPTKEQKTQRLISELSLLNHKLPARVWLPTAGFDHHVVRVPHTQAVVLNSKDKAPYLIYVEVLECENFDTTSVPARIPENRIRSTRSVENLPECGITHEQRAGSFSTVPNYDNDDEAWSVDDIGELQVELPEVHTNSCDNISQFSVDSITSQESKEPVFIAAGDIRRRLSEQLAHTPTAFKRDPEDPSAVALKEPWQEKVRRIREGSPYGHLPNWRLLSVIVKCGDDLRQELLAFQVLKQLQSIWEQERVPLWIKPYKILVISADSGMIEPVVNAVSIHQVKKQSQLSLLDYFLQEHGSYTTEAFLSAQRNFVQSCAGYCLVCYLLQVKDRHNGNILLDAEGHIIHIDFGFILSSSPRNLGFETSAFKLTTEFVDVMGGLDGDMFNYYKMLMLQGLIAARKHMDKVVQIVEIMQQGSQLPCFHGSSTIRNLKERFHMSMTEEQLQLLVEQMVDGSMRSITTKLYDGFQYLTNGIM
Mitogen-activated protein kinase 15 (Homo sapiens), sequence (Q8TD08 whole entry, the tested form may be a part): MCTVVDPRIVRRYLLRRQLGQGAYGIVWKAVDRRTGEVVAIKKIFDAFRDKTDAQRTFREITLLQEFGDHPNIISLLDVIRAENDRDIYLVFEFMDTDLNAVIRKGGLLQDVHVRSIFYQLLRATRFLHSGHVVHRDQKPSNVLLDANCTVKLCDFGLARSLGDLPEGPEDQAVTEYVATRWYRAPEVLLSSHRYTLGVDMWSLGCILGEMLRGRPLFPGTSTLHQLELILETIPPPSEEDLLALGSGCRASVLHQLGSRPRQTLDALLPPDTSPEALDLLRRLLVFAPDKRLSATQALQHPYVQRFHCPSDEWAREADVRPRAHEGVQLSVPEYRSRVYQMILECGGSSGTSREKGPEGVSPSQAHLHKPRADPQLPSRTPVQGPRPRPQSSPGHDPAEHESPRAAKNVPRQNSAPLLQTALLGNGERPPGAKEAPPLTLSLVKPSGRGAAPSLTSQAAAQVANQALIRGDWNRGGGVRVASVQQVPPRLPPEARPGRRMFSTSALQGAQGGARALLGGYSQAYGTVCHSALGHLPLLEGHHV
1-phosphatidylinositol 3-phosphate 5-kinase, sequence (Q9Y2I7 whole entry, the tested form may be a part): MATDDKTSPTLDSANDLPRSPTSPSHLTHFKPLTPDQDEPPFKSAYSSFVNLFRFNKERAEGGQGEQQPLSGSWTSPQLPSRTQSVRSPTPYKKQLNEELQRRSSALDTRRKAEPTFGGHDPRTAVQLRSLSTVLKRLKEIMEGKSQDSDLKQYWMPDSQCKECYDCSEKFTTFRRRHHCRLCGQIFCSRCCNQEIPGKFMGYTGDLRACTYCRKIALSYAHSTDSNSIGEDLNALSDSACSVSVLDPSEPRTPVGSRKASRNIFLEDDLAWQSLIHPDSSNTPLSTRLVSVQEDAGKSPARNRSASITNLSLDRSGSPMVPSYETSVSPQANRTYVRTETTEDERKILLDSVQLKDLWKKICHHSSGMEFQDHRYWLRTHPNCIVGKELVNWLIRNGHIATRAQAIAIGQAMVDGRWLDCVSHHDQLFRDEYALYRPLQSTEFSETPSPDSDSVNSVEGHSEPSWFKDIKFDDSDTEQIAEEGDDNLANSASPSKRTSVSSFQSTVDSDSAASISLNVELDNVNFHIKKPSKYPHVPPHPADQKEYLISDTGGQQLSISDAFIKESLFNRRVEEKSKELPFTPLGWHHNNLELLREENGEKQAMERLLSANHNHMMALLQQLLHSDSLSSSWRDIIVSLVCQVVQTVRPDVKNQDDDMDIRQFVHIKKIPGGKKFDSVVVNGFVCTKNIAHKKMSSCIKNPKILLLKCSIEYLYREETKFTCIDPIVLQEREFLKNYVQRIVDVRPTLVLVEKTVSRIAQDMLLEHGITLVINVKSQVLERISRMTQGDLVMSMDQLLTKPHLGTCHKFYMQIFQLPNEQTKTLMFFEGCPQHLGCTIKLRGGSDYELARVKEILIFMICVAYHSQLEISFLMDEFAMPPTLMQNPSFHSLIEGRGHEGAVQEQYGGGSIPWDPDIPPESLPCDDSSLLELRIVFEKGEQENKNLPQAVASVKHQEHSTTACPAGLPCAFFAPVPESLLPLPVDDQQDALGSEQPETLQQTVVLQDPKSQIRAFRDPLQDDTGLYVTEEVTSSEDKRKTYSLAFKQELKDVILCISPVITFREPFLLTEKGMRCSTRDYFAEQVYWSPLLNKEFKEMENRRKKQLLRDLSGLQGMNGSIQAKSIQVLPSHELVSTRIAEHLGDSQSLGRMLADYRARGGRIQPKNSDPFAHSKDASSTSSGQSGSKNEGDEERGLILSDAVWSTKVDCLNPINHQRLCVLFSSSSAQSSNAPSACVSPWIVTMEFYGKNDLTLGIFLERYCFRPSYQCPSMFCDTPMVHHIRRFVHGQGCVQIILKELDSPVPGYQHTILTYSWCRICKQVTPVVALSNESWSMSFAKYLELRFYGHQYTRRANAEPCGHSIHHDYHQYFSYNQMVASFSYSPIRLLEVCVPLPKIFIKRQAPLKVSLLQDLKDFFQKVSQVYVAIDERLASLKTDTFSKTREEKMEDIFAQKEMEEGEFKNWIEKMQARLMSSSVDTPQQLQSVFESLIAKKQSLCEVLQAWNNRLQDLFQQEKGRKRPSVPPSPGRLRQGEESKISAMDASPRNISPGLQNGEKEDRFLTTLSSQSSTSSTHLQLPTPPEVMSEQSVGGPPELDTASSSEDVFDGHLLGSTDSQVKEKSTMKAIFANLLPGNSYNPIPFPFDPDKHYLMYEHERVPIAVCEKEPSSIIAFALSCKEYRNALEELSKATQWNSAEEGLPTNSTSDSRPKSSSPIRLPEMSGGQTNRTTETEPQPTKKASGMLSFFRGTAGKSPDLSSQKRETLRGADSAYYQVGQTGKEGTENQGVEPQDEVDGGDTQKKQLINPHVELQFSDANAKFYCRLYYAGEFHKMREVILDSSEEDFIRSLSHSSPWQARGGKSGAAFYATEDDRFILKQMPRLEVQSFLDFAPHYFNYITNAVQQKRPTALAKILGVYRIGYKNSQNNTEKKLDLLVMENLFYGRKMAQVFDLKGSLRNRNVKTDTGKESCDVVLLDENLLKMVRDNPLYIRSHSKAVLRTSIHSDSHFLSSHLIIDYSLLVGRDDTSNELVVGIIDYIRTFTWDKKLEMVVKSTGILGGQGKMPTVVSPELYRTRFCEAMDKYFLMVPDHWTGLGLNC

As to `COc1cc(Br)cc2[nH]cc(-c3cnc(-c4ccc[nH]4)o3)c12`, the values for the Activity entry (with MCF7 [1]; in data set [2]) were “Tde” and 7%, respectively.
Consider `COc1cc(Br)cc2[nH]cc(-c3oc(-c4ccc[nH]4)nc3I)c12`, for which the Activity in [3] is 21%.
Take `COc1cc2c(-c3cnc(-c4ccc[nH]4)o3)c[nH]c2cc1Br`: the Activity was 7% in data set [4]; 2% in data set [5]; 6% in data set [6]; 21% in [7]; 67% in [8]; “Non-Toxic” in the data set on PBMC. Moreover, the Activity in data set [15] came to 0%; in [16], 95%. The dissociation constant (Kd) (commonly the concentration at which binding is half-saturated) worked out at 390 nM in data set [9]; 1000 nM in data set [10]; 1000 nM in [11]; 2900 nM in [12]; 3.3 µM in data set [13]. The IC50 – broadly, the concentration that gives 50% inhibition – with MCF7 [14] came to 770 nM; in the data set on NCI-H460, 2000 nM. Also, the remaining at 1 h, 5 µM in data set [17] came to 92%. For the same compound, the Fu in data set [18] and in data set [19] was 0.3% each time. The solubility kinetic at 500 µM in data set [20] worked out at 156 µM (≈ 55.9 µg/mL).
